Test results published in the CheMixHub viscosity set.

Assay: xn = mol fraction of the nth substance listed

CC1CCCCC1O (centres undefined) + NC1CCCCC1
viscosity [mPa·s], 100 kPa
Conditions	x1 = 0.04642	x1 = 0.09319	x1 = 0.1878	x1 = 0.2839	x1 = 0.3814	x1 = 0.4805	x1 = 0.5811	x1 = 0.6834	x1 = 0.7872	x1 = 0.8928
293.15 K	2.657	2.965	3.533	4.632	5.819	7.685	11.76	15.63	20	27.62
298.15 K	2.328	2.582	3.048	3.894	4.852	6.53	9.343	12.39	15.17	19.95
303.15 K	2.057	2.27	2.656	3.351	4.096	5.343	7.677	9.722	11.73	14.98
308.15 K	1.833	2.008	2.335	3.042	3.498	4.468	6.235	7.748	9.687	11.45
313.15 K	1.645	1.791	2.068	2.65	3.018	3.782	5.118	6.295	7.365	8.876

ClC(Cl)(Cl)Cl + O=S1(=O)CCCC1
viscosity [mPa·s], 101.33 kPa
Conditions	303.15 K	313.15 K	323.15 K
x2 = 0.066	1.002	0.8675	0.7607
x2 = 0.1374	1.243	1.062	0.9177
x2 = 0.2048	1.532	1.286	1.098
x2 = 0.3138	2.043	1.691	1.425
x2 = 0.3838	2.392	1.974	1.658
x2 = 0.4188	2.589	2.133	1.79
x2 = 0.4879	3.046	2.498	2.082
x2 = 0.5667	3.682	2.982	2.47
x2 = 0.6334	4.338	3.481	2.855
x2 = 0.705	5.162	4.107	3.348
x2 = 0.7743	6.124	4.817	3.9
x2 = 0.8473	7.286	5.711	4.571
x2 = 0.8955	8.168	6.367	5.053
